Test results as given in the supplement of paper PMC10307832.

How the values were obtained:
Experiment in all cases: relative viability (nuclei count vs DMSO), 5 days (fraction); higher = more cells survive
[1] = compound: O=C1NC(=O)[C@@H](c2cn3c4c(cccc24)CCC3)[C@@H]1c1c[nH]c2ccccc12 [Tivantinib] + N=C(N)NC(=N)NCCc1ccccc1 [Phenformin] (partner 250 µM)
How it was run: (§1)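 Cells from lung cancer lines were seeded into 1536-well plates and, one day later, dosed by pin tool. Treatments were either a single drug or a fixed dose of an anchor drug with five library-drug doses (not always all listed) in √10 steps. After 5 days, nuclei were stained in a one-step fixation (final 0.05% Triton X-100, 1% formaldehyde, 1 ug/ml Hoechst) and counted on 4× images, and relative viability is the treated-to-vehicle nuclei ratio, as the median of duplicate plates.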

[2] = compound: O=C1NC(=O)[C@@H](c2cn3c4c(cccc24)CCC3)[C@@H]1c1c[nH]c2ccccc12 [Tivantinib] + NC(=O)Nc1cc(-c2cccc(F)c2)sc1C(=O)N[C@H]1CCCNC1 [AZD7762] (partner 0.2 µM)
How it was run: as §1

[3] = compound: CC1(COc2ccc3c(c2)ncn3-c2ccc3cccc(N4CCC(N)CC4)c3n2)COC1 [Crenolanib] + O=C(CCCCCCC(=O)Nc1ccccc1)NO [Vorinostat] (partner 1 µM)
How it was run: as §1

[4] = compound: CC1(COc2ccc3c(c2)ncn3-c2ccc3cccc(N4CCC(N)CC4)c3n2)COC1 [Crenolanib] + CC(C)C[C@H](NC(=O)[C@H](Cc1ccccc1)NC(=O)c1cnccn1)B(O)O [Bortezomib] (partner 0.002 µM)
How it was run: as §1

Row | Cell Line | relative viability ([1]; first compound 0.01 µM) | relative viability ([1]; first compound 0.03162 µM) | relative viability ([1]; first compound 0.1 µM) | relative viability ([1]; first compound 0.3162 µM) | relative viability ([2]; first compound 0.01 µM) | relative viability ([2]; first compound 0.03162 µM) | relative viability ([2]; first compound 0.1 µM) | relative viability ([2]; first compound 0.3162 µM) | relative viability ([3]; first compound 0.01 µM) | relative viability ([3]; first compound 0.03162 µM) | relative viability ([3]; first compound 0.1 µM) | relative viability ([3]; first compound 0.3162 µM) | relative viability ([3]; first compound 1 µM) | relative viability ([4]; first compound 0.01 µM) | relative viability ([4]; first compound 0.03162 µM) | relative viability ([4]; first compound 0.1 µM) | relative viability ([4]; first compound 0.3162 µM) | relative viability ([4]; first compound 1 µM)
1 | NCI-H1734 | 0.401 | 0.346 | 0.386 | 0.451 | 0.6 | 0.487 | 0.505 | 0.478 | 0.852 | 0.801 | 0.786 | 0.946 | 0.757 | 0.979 | 1.09 | 0.919 | 1.22 | 0.93
2 | LCLC-97TM1 | 0.456 | 0.496 | 0.453 | 0.388 | 0.268 | 0.311 | 0.197 | 0.25 | 0.822 | 0.83 | 0.792 | 0.832 | 0.536 | 0.454 | 0.396 | 0.69 | 0.896 | 0.699
3 | RERF-LC-KJ | 0.454 | 0.442 | 0.407 | 0.335 | 1.08 | 0.921 | 0.952 | 0.92 | 0.759 | 0.707 | 0.664 | 0.689 | 0.711 | 1.26 | 1.15 | 1.11 | 1.1 | 1.12
4 | BEN | 0.29 | 0.258 | 0.254 | 0.26 | 0.705 | 0.535 | 0.617 | 0.581 | 0.569 | 0.516 | 0.581 | 0.595 | 0.555 | 0.821 | 0.644 | 0.733 | 0.881 | 0.761
5 | LCLC-103H | 0.327 | 0.312 | 0.378 | 0.374 | 0.808 | 0.702 | 0.684 | 0.793 | 0.752 | 0.791 | 0.754 | 0.811 | 0.746 | 1.05 | 1.02 | 0.922 | 0.954 | 0.976
6 | ChaGo-K-1 | 0.586 | 0.442 | 0.483 | 0.542 | 0.781 | 0.871 | 0.862 | 0.861 | 0.721 | 0.81 | 0.724 | 0.745 | 0.793 | 1.07 | 0.769 | 0.941 | 0.969 | 0.971
7 | NCI-H1993 | 0.446 | 0.503 | 0.514 | 0.605 | 0.768 | 0.715 | 0.656 | 0.455 | 0.956 | 0.728 | 0.777 | 0.797 | 0.729 | 0.82 | 1.11 | 1.04 | 1.06 | 0.994
8 | NCI-H2347 | 0.514 | 0.375 | 0.389 | 0.377 | 0.848 | 0.727 | 0.669 | 0.534 | 0.629 | 0.807 | 0.383 | 0.707 | 0.645 | 1.16 | 0.724 | – | 0.727 | 1.19
9 | HCC-44 | 0.325 | 0.171 | 0.225 | 0.215 | 1.04 | 1.05 | 1.08 | 0.985 | 1.06 | 1.05 | 1.19 | 1.06 | 1.05 | 0.944 | 0.876 | 0.856 | 0.878 | 0.833
